The text below walks through data of US11752155B2, “Treatment of autism spectrum disorders, obsessive-compulsive disorder and anxiety disorders” (Rugen Holdings (Cayman) Limited, priority 2016, dated 2023).

Where two headings read alike, the source gives them in different places.

The test system of experiment [1] is Shank3 complete knockout mice. Kind of experiment: Grooming Test in Shank3 complete knockout mice. The conditions noted are these: for acute effect on grooming: single IP dose, 20 min postdose, Day 1. The format is in vivo, mouse. As to the method:
Animals. The breeding conditions and genotyping methods for Sapap3 and Shank3 complete knockout mice were the same as described in Welch et al. (Nature 2007, 448(7156):894-900) and in Wang et al. (Nat. Commun. 2016, 7:11459), respectively. Homozygous knockout mice and littermate wild type mice of both genders were used at 4 to 8 weeks of age.
Compound formulation. The test compounds were dissolved in a small volume of dimethyl sulfoxide (DMSO) and diluted in an aqueous solution of 2-hydroxypropyl-beta-cyclodextrin (HP-β-CD) and administered IP. Dosing volume was 10 mL/kg. At 20 minutes after dosing, the mice were subjected to the behavioral test as described below.
Testing room and apparatus. The test room was maintained under the same conditions as the colony rooms, except the mice were housed in conventional shoe-box cages with food, water, and nesting materials. Animals were housed in the test room 48-72 hours prior to testing, in order to permit the mice to fully acclimate to the test room and conventional housing cages before testing. Tests were conducted in white polyvinyl-fluoride hard-sided foam test arenas (20×20×12 cm). The arenas were indirectly illuminated by dimmable LED light bars placed level with the arena floor and 30 cm away from the external wall of the test arena. This permitted the internal area of the arena to be evenly illuminated at approximately 40 lux. The illumination levels where the mice were housed before testing were about 80-100 lux.
Testing procedure. Mice were carefully placed into the test arenas 20 minutes after compound administration. Animals were given free exploration of the arena for 10 minutes, after which they were gently sprayed with 4 quick pumps of a water mist (total water volume approximated 1.5-1.7 mL). Mice were then allowed an additional 10 minutes to self-groom and engage in other behaviors before being removed from the arena. All tests were videotaped using cameras mounted above the testing arena and were saved to digital media format using Noldus Media Player software (Noldus Information Technologies, Leesburg, Va.). The mice were only tested once in the acute studies and were repeatedly tested in the sustained effect studies.
Quantitation of grooming bouts. Analyses of the video recordings were conducted with TopScan behavioral recognition software (Cleversys Inc, Reston, Va.). Configurations were made which scored time spent in grooming. […] These settings permitted automated scoring of grooming by TopScan that corresponded well to manual-scoring of these behaviors by a trained blinded observer using Noldus Observer XT9 (Noldus Information Technologies), with an average corrected kappa of 0.925 (range 0.807-0.983).
Statistical analyses. Data are presented as means and standard error of the means (SEMs). Analyses were conducted using SPSS 23 (IBM SPSS Statistics, Chicago, Ill.). Time spent in grooming behavior (seconds) over the 10-minute pre- and post-spray time blocks were analyzed with repeated measures analyses of variance (RMANOVA). The pre- and post-spray times were used for the within subject effects and the genotype and compound treatment condition were used as the between subject effects. In sustained effect studies, days were also used for a within subject effect. […]
The amount of time mice spent grooming in a novel environment was quantified in Shank3 complete knockout mice (Wang et al. Nat. Commun. 2016, 7:11459) and their wild type littermates for 10 minutes. […]

The test system of experiment [2] is wild type mice (male C57Bl/6). Kind of experiment: Novelty Phobia Test in wild type mice. The format is in vivo, mouse. The conditions noted are these: for change in vivo at 0.3 mg/kg / change in vivo at 1 mg/kg / change in vivo at 30 mg/kg / change in vivo at 3 mg/kg / change in vivo at 10 mg/kg: Mus musculus, ip, IP, read-out: Percent Change in Novel Object Number of Nose Touches relative to vehicle control; for pattern of the dose-response function for bouts of nose touching: mouse, in vivo. The protocol: Animals. Male C57Bl/6 mice (18-30 g body weight; 6-8 weeks of age) were obtained from Slaccas (Shanghai, China) and allowed to acclimate to the animal facility for 7 days. Mice were group housed in plastic cages (no more than 4 animals per cage) on wood shavings with nesting material. All animals had free access to food (M01-F, Slaccas) and water. The animal facility was maintained under artificial lighting between 7:00 AM and 7:00 PM in a controlled ambient temperature of 22-24° C. and relative humidity between 50-60%.
Compound formulation. The test compounds were prepared in a vehicle of DMSO and HP-β-CD, and administered IP or PO. The test compounds or vehicle were administered at various times (10-20 minutes) before the behavioral test described below. Dosing volume was 10 mL/kg.
Testing procedure. The behavioral testing apparatus was a rectangular black Plexiglas, 2-chambered box, with no top or bottom (50 cm long, 26 cm wide and 15 cm tall) and allowed for the simultaneous testing of 2 mice. The box was placed on a laboratory bench. The chambers of the testing box were cleaned and fresh paper chip bedding was added between tests. Mice were brought to the experiment room in their home cages on the day of testing. Behavioral tests were conducted between 10:00 AM and 1:00 PM in dim light. After drug administration, a mouse was placed into a test chamber and allowed to explore for 10 minutes. After this habituation period, a novel object (e.g., a toy ball of 3 cm in diameter with spikes) was introduced to the center of the chamber for 5 minutes. For the entire 15-minute test period, video was recorded for offline analysis with Any-maze Video Tracking software (Stoelting Co., Wood Dale, Ill.). The total distance traveled during the entire 15 minutes and the number of bouts that each mouse touched the novel object during the last 5 minutes were measured.
Statistical analyses. Data are presented as means and SEMs. Data were analyzed using one-way analysis of variance (ANOVA; Prism, GraphPad Software Inc., San Diego, Calif.), followed by the post-hoc Dunnett's test to compare test compound-treated groups with the vehicle control. A p value<0.05 was considered significant.

[3] abbreviates: single dose 3 mg/kg IP on Day 1.

Take `FC(F)c1ccc(C(F)(F)CN2CCC(Nc3ncnc4[nH]ccc34)CC2)cc1` [C-179^A′]: the “acute effect on grooming” value in experiment [1] is “significantly reduced grooming”. For the same compound, the “significantly reduced grooming through Day” value in experiment [1] (single dose 1 mg/kg IP on Day 1) was 33 days. The “significantly reduced grooming through Day” value in experiment [1] (setting [3]) turned out to be 33 days. In experiment [2] (0.25 h, pre-test time 15 min), the change in vivo at 0.3 mg/kg is -12%, the change in vivo at 1 mg/kg stood at 64.7% and the change in vivo at 30 mg/kg was 28%. Besides, in experiment [2] (20 min, pre-test time 20 min), the change in vivo at 0.3 mg/kg amounted to 51.7%, the change in vivo at 1 mg/kg was 139% and the change in vivo at 3 mg/kg came out at 164%. The “pattern of the dose-response function for bouts of nose touching” value (“pattern of the dose-response function” below) in experiment [2] was “inverted U-shaped dose-response function”.
Turning to `Cc1ccc(COC(=O)N2CC[C@H](CNc3nccn4cnnc34)C(F)(F)C2)cc1` [E1-1.2^B′], in experiment [2] (10 min, pre-test time 10 min), the change in vivo at 0.3 mg/kg turned out to be 16.1% and the change in vivo at 10 mg/kg was found to be 218%. In experiment [2], the “pattern of the dose-response function” value is reported as “dose-dependent increases”.
On to `Cc1ccc(COC(=O)N2CC[C@H](CNc3cnc(C)cn3)C(F)(F)C2)cc1` [E1-21.26^B′], for which, in experiment [2] (20 min, pre-test time 20 min), the change in vivo at 3 mg/kg stood at 141%, the change in vivo at 10 mg/kg was 149% and the change in vivo at 30 mg/kg came to 171%. The “pattern of the dose-response function” value in experiment [2] was “dose-dependent increases”.
Regarding `Cc1ccc(COC(=O)N2CC[C@H](CNc3ncccn3)C(F)(F)C2)cc1` [E1-22.2^B′], the “acute effect on grooming” value in experiment [1] is given as “significantly reduced grooming”. The “significantly reduced grooming through Day” value in experiment [1] (setting [3]) was determined as 33 days. Further, in experiment [2] (20 min, pre-test time 20 min), the change in vivo at 3 mg/kg is 163%, the change in vivo at 10 mg/kg amounted to 115% and the change in vivo at 30 mg/kg is 98.9%.
